Test results reported in PubChem BioAssay AID1549 (Sanford-Burnham Center for Chemical Genomics, 2009).
Activity calls are given as the source filed them. The rule behind the calls is not given here.

target: Influenza A virus M2 proton channel (A/TW/4845/1999 H1N1); test: NMR binding screen, influenza A virus M2 proton channel, Kd (AID 1549); conditions: M2 protein

Structure (SMILES)	Kd
CC(=O)O[C@@H]1CC2C(C)(C)C(=O)C=C[C@]2(C)C2CC[C@@]3(C)[C@H](c4ccoc4)OC(=O)[C@H]4O[C@]43[C@@]21C (stereo not given in full)	> 4 mM (inactive)
S=c1ccc(N2CCCCC2)n[nH]1	> 4 mM (inactive)
CC(=O)Nc1nc(C)c(C(C)=O)s1	> 4 mM (inactive)
COc1ccccc1NC(C)=O	> 4 mM (inactive)
Nc1c(/C=C2\C=Nc3ccccc32)c(=O)nc2scnn12	> 4 mM (inactive)
N[C@@H](C(=O)O)[C@@H](O)[C@H](O)[C@H](O)CO	> 4 mM (inactive)
Nc1cc(=O)[nH]c(SCC(=O)NCc2ccccc2)n1	> 4 mM (inactive)
O=C(O)CN1C(=O)c2ccc(C(=O)O)cc2C1=O	> 4 mM (inactive)
CC(=O)O[C@@H]1CC2C(C)(C)[C@@H](O)CC[C@]2(C)C2CC[C@@]3(C)[C@H](c4ccoc4)OC(=O)[C@H]4O[C@]43[C@@]21C (stereo not given in full)	> 4 mM (inactive)
N/C(=N/S(=O)(=O)c1cccs1)c1ccccc1	> 4 mM (inactive)
Cc1nc(-c2cnccn2)sc1C(=O)O	> 4 mM (inactive)
O=C(Nc1ccccc1N1CCCC1)c1cccnc1	> 4 mM (inactive)
COC(=O)c1cccc(Cn2nnc3ccccc3c2=O)c1	> 4 mM (inactive)
COc1cc(C2NC(=S)NC(C)=C2C(C)=O)ccc1O (stereo not given)	> 4 mM (inactive)
COc1ccc(-c2nc3nc(C)cc(C)n3n2)cc1	> 4 mM (inactive)
Cc1nc2ccccc2c(=O)n1/N=C/c1ccncc1	> 4 mM (inactive)
O=c1/c(=C\c2cccnc2)sc2nc3ccccc3n12	> 4 mM (inactive)
CC(=O)Nc1cc(N2C(=O)C=CC2=O)ccc1Cl	> 4 mM (inactive)
NCc1ccccc1N1CCOCC1	> 4 mM (inactive)
Cn1cnc2cc(NC(=O)c3ccco3)ccc21	> 4 mM (inactive)
OCCNC(=S)Nc1ccc(F)cc1	> 4 mM (inactive)
Cc1noc(C)c1C(=O)NCc1ccco1	> 4 mM (inactive)
Cc1nc2ccc(C(=O)N3CCSCC3)cc2s1	> 4 mM (inactive)
CC(=O)NC1=NN(c2ccccc2)C(=O)C1	> 4 mM (inactive)

Structure (SMILES)	Kd
CS(=O)(=O)c1ccccc1C(=O)Nc1nccs1	> 4 mM (inactive)
O=C(O)C1CSC(c2cc3ccccc3nc2Cl)N1 (stereo not given)	> 4 mM (inactive)
CC(=O)OC1CCC23C(=O)OC45CCC(C6=CC(=O)OC6)C4(C)CCC2C5CCC3(O)C1 (stereo not given)	> 4 mM (inactive)
S=c1[nH]c2cccnc2[nH]1	> 4 mM (inactive)
O=C1Nc2ccccc2C12OCCO2	> 4 mM (inactive)
N#CC(O[C@@H]1O[C@H](CO[C@@H]2O[C@H](CO)[C@@H](O)[C@H](O)[C@H]2O)[C@@H](O)[C@H](O)[C@H]1O)c1ccccc1 (stereo not given in full)	> 4 mM (inactive)
COc1ccc(S(=O)(=O)N2CCC(C(N)=O)CC2)cc1	> 4 mM (inactive)
Cc1nc2nc(-c3ccco3)nn2c(C)c1Cl	> 4 mM (inactive)
Cc1ccc(C(=O)CS(C)(=O)=O)cc1	> 4 mM (inactive)
O=C(Nn1cnnc1)c1cc2c(s1)CCCC2	> 4 mM (inactive)
O=C(Nc1ccon1)c1csc2ccccc12	> 4 mM (inactive)
COc1c(-c2coc3cc4c(cc3c2=O)CC(O)C(C)(C)O4)ccc2c1C=CC(C)(C)O2 (stereo not given)	> 4 mM (inactive)
C=C[C@@](C)(O)CCC1C(=C)C[C@H](O)C2C(C)(C)CCCC12C (stereo not given in full)	> 4 mM (inactive)
CC(=O)N1CCn2c3c(c(=O)c4cc(C)ccc42)CCC31 (stereo not given)	> 4 mM (inactive)
Cc1cc(C)nc(/N=C(/N)N2CCOCC2)n1	> 4 mM (inactive)
N#CCCn1ccnc1-c1ccccc1	> 4 mM (inactive)
N#Cc1cc2c(nc1SCc1ccncc1)CCC2	> 4 mM (inactive)
COc1ccc2c(c1)OC1(O)COc3cc(OC)c(OC)cc3C1=C2 (stereo not given)	> 4 mM (inactive)
Cn1c([O-])c([N+](C)(C)C)c(=O)n(C)c1=O	> 4 mM (inactive)
CCOC(=O)c1ccc2c(c1)nnn2C	> 4 mM (inactive)
O=c1ccc2ccc(O)cc2o1	> 4 mM (inactive)
CC(C)=CC(=O)Nc1ccccc1Br	> 4 mM (inactive)
NCc1ccc(-c2csnn2)cc1	> 4 mM (inactive)
Nc1cc(F)nc(F)n1	> 4 mM (inactive)

Structure (SMILES)	Kd
CCC(=O)n1nc(-c2ccco2)nc1N	> 4 mM (inactive)
CNC(=S)NCCN1CCOCC1	> 4 mM (inactive)
NC(=O)c1ccc(N2C(=O)C=CC2=O)cc1Cl	> 4 mM (inactive)
Cc1nc2cc(NC(=O)Nc3nccs3)ccc2n1C	> 4 mM (inactive)
COc1ncccc1N	> 4 mM (inactive)
Nc1cc(=O)[nH]c(=S)n1-c1ccc(F)cc1	> 4 mM (inactive)
COC(=O)c1noc(-c2ccc(OC)cc2)n1	> 4 mM (inactive)
O=C(NCc1ccc2c(c1)OCO2)c1cccs1	> 4 mM (inactive)
CC1(C)Cc2cccc(CO)c2O1	> 4 mM (inactive)
CC1=[N+]([O-])C2(N)CCc3c(no[n+]3[O-])C2(O)C1 (stereo not given)	> 4 mM (inactive)
CNC(=O)C(=O)Nc1ccc(F)cc1	> 4 mM (inactive)
O=c1nc(NCc2ccco2)sc2ncccc12	> 4 mM (inactive)
COc1cc2c(cc1OC)-c1nnnn1C(C)(C)C2	> 4 mM (inactive)
Nc1ccc2ncsc2c1	> 4 mM (inactive)
O=C(O)CCCCC1SCC2NC(=O)NC21 (stereo not given)	> 4 mM (inactive)
OCc1cccs1	> 4 mM (inactive)
C[C@H]1CCCC(=O)CCC/C=C/c2cc(O)cc(O)c2C(=O)O1	> 4 mM (inactive)
COc1cccc(-c2nn(-c3ccccc3)cc2CO)c1	> 4 mM (inactive)
O=[N+]([O-])c1ccc(/C=N/c2ncn[nH]2)cc1	> 4 mM (inactive)
c1ccc(Cc2nnc3sc(-c4ccccn4)nn23)cc1	> 4 mM (inactive)
CCCc1nc2ccccc2c2nc(N)nn12	> 4 mM (inactive)
COCC(=O)NC1CC(C)(C)NC(C)(C)C1	> 4 mM (inactive)
COCc1cc(Cl)nc(-c2csc(C)n2)n1	> 4 mM (inactive)
CC(=O)CNc1cc(CNC(C)=O)c(C)cc1C	> 4 mM (inactive)

Structure (SMILES)	Kd
c1ccc2c(c1)CN1CCCC1=N2	> 4 mM (inactive)
COc1ccc(-c2ccc(SCC(N)=O)nn2)cc1	> 4 mM (inactive)
O=C(O)c1cc2ccccc2o1	> 4 mM (inactive)
CN(C)S(=O)(=O)Nc1ccc(Br)cc1F	> 4 mM (inactive)
CC(=O)Nc1ccc(C(=O)n2nc(C)cc2C)cc1	> 4 mM (inactive)
CNS(=O)(=O)c1ccc2[nH]c(=O)[nH]c2c1	> 4 mM (inactive)
COc1ccc2[nH]cc(CN(C)C)c2c1	> 4 mM (inactive)
NC(=O)CSc1nnc(-c2cccnc2)o1	> 4 mM (inactive)
CC(CCC(=O)O)[C@H]1CCC2C3C[C@H](O)[C@@H]4C[C@H](O)CC[C@]4(C)C3CC[C@@]21C (stereo not given in full)	> 4 mM (inactive)
O=C(Cc1cccs1)N1CCOCC1	> 4 mM (inactive)
NC(=O)C1CCCN1S(=O)(=O)c1ccc(F)cc1 (stereo not given)	> 4 mM (inactive)
O=C(NN1C(=O)C2C3C=CC(C3)C2C1=O)C1CC=CCC1 (stereo not given)	> 4 mM (inactive)
CC(C)CC(=O)NC1CCSC1=O (stereo not given)	> 4 mM (inactive)
COc1cc2c(cc1O)[C@@H](Cc1ccc(O)cc1)[N+](C)(C)CC2	> 4 mM (inactive)
Nc1nc2ncc(CNc3ccc(C(=O)N[C@@H](CCC(=O)O)C(=O)O)cc3)nc2c(=O)[nH]1	> 4 mM (inactive)
CCOC(=O)Cc1nc2ccccc2[nH]1	> 4 mM (inactive)
O=S(=O)(c1cccc2cccnc12)N1CCOCC1	> 4 mM (inactive)
NC(=O)CN=Cc1c(O)[nH]c2ccccc12	> 4 mM (inactive)
COn1c(=O)c(C)[n+]([O-])c2ccccc21	> 4 mM (inactive)
Nc1ccc2[nH]ncc2c1	> 4 mM (inactive)
COc1cccc(NC(=O)c2cccs2)c1	> 4 mM (inactive)
CC(C)=CCOc1cc2oc(=O)ccc2cc1O	> 4 mM (inactive)
O=C(NCc1ccccn1)c1ccc(Cl)cc1Cl	> 4 mM (inactive)
O=C(Nc1ccon1)c1cccc(Cl)c1	> 4 mM (inactive)

Structure (SMILES)	Kd
CSc1ncc(CO)n1Cc1ccccc1	> 4 mM (inactive)
COc1ccc(C)cc1S(N)(=O)=O	> 4 mM (inactive)
S=c1[nH]nc(-c2cccnc2)n1C1CCCCC1	> 4 mM (inactive)
Cc1cc(=O)oc2cc(O)c(O)cc12	> 4 mM (inactive)
COc1ccc(C)cc1S(=O)(=O)N1CCCCC1	> 4 mM (inactive)
CN=C1SC(CC(=O)Nc2ccc(O)cc2)C(=O)N1C (stereo not given)	> 4 mM (inactive)
COc1cc(C(C)=O)ccc1OCC(O)Cn1ccnc1 (stereo not given)	> 4 mM (inactive)
O=C1CC(=O)N(Cc2ccco2)C(=S)N1	> 4 mM (inactive)
C=C1CCC(C2CC(=O)OC2=O)C(=O)CCC2C1CC2(C)C (stereo not given)	> 4 mM (inactive)
CN(c1ccccc1C(=O)N1CCCC1)S(C)(=O)=O	> 4 mM (inactive)
c1cc(C(N2CCOCC2)N2CCOCC2)ccn1	> 4 mM (inactive)
CCOC(=O)C1C(C=C(C)C)C1(C)C (stereo not given)	> 4 mM (inactive)
Cc1nn(C)c(N2CCOCC2)c1N	> 4 mM (inactive)
O=S(=O)(Cc1ccc(Cl)cc1)N1CCCC1	> 4 mM (inactive)
C=CC(C)(O)CC/C=C(\C)CCC=C(C)C (stereo not given)	> 4 mM (inactive)
CCOc1ccc(N2C(=O)CCC2=O)cc1	> 4 mM (inactive)
CC(C)c1c(O)ccc2c1CCC1[C@@](C)(CO)CCC[C@]21C (stereo not given in full)	> 4 mM (inactive)
c1cncc(Nc2nc(-c3cccnc3)cs2)c1	> 4 mM (inactive)
O=C1C=CC2=C3c4cc(O)c(O)cc4CC3(O)COC2=C1O (stereo not given)	> 4 mM (inactive)
Cc1ccc(NC(=O)C2CCCNC2=O)nc1 (stereo not given)	> 4 mM (inactive)
O=c1[nH]cc(COCc2ccccc2)c(=O)[nH]1	> 4 mM (inactive)
Cc1cc(NC(=O)CSc2ccnc(=O)[nH]2)no1	> 4 mM (inactive)
CC1CN(C2=NCCN2)CC(C)O1 (stereo not given)	> 4 mM (inactive)
Cc1cc(C(=O)Nc2cccnc2)cs1	> 4 mM (inactive)
